# Results from US7572635B2, “Method for agrobacterium transformation for dihaploid corn plants” (Monsanto Technology LLC, priority 2004, dated 2009).
# Key:
# R0 plants = assay: Comparison of doubling with and without colchicine: ploidy number of R0 plants; assay type: in vivo, corn
# Excerpt: Comparison of Doubling with and without Colchicine
# This is about a 3-fold increase in the amount of doubling. The doubling from the Agrobacterium-mediated transformation process is about as efficient as a very low level of colchicine (50%), but not as effective as a more typical amount (83%).
# plant tissues = assay: Regenerability of plant tissues exposed to colchicine (own experiments); assay type: cell-based; settings: levels of colchicine below levels used for chromosome doubling
# Excerpt: The ability to produce dihaploid transformed plants without the use of an added chromosome doubling agent is a huge advantage. Chromosome doubling agents tend to be highly toxic chemicals because they are antimicrotubule agents. Also, when using chromosome doubling agents to produce dihaploids from haploids some tetraploids are formed as well. Also, optimization of the chromosome doubling agent is detrimental to the production of transformants in the transformation process.
structure (smiles),measurement,setting,value
COc1cc2c(c(OC)c1OC)-c1ccc(OC)c(=O)cc1[C@@H](NC(C)=O)CC2 [colchicine],% diploid,R0 plants; no transformation + 0.01% colchicine + plant regeneration (very low level of colchicine),50%
same,% diploid,R0 plants; no transformation + 0.025% colchicine + plant regeneration (more typical amount used for doubling),83%
same,regenerability of plant tissues,plant tissues,greatly diminish the regenerability of plant tissues
